Test results as given in the NIST ThermoML archive (doi:10.1016/j.jct.2005.02.003).

Test: molar heat capacity at constant pressure
Conditions: 101.33 kPa

CC(C)COC(C)(C)C [isobutyl tert-butyl ether]
Conditions	molar heat capacity at constant pressure [J/K/mol]
5 K, Crystal	0.38
7.68 K, Crystal	1.339
8.33 K, Crystal	1.743
8.97 K, Crystal	2.217
9.61 K, Crystal	2.779
10 K, Crystal	3.042
10.26 K, Crystal	3.32
11.02 K, Crystal	4.139
11.92 K, Crystal	5.166
12.83 K, Crystal	6.289
13.74 K, Crystal	7.45
14.65 K, Crystal	8.714
15 K, Crystal	9.221
15.57 K, Crystal	10.02
16.48 K, Crystal	11.42
17.41 K, Crystal	12.82
18.34 K, Crystal	14.27
19.27 K, Crystal	15.69
20 K, Crystal	16.85
20.2 K, Crystal	17.2
21.22 K, Crystal	18.77
22.29 K, Crystal	20.45
23.35 K, Crystal	22.1
24.42 K, Crystal	23.8
25 K, Crystal	24.7
25.49 K, Crystal	25.53
26.55 K, Crystal	27.09
27.63 K, Crystal	28.56
28.7 K, Crystal	30.12
29.77 K, Crystal	31.74
30 K, Crystal	32.07
30.84 K, Crystal	33.37
31.91 K, Crystal	34.71
32.98 K, Crystal	36.13
34.05 K, Crystal	37.59
35 K, Crystal	38.76
35.12 K, Crystal	38.89
36.19 K, Crystal	40.25
37.26 K, Crystal	41.63
38.34 K, Crystal	42.83
39.41 K, Crystal	44.07
40 K, Crystal	44.8
40.47 K, Crystal	45.31
41.54 K, Crystal	46.53
42.6 K, Crystal	47.83
43.66 K, Crystal	48.91
44.72 K, Crystal	50.25
45 K, Crystal	50.39
45.78 K, Crystal	51.18
46.84 K, Crystal	52.39
47.9 K, Crystal	53.45
48.96 K, Crystal	54.66
50 K, Crystal	55.71
50.01 K, Crystal	55.57
51.07 K, Crystal	56.57
52.12 K, Crystal	57.81
53.17 K, Crystal	59.02
54.22 K, Crystal	60.27
55 K, Crystal	60.91
55.27 K, Crystal	61.56
56.31 K, Crystal	63.16
57.36 K, Crystal	64.51
58.41 K, Crystal	64.56
59.46 K, Crystal	65.29
60 K, Crystal	66.03
63.63 K, Crystal	70.22
64.68 K, Crystal	70.75
65 K, Crystal	71.08
65.72 K, Crystal	72.16
66.76 K, Crystal	73.11
67.8 K, Crystal	74.04
68.84 K, Crystal	74.44
69.88 K, Crystal	75.46
70 K, Crystal	76.09
70.92 K, Crystal	76.66
71.95 K, Crystal	77.53
74.01 K, Crystal	79.84
75 K, Crystal	81.05
75.04 K, Crystal	81.32
76.07 K, Crystal	82.23
77.1 K, Crystal	83.09
79.16 K, Crystal	85.64
80 K, Crystal	85.97
80.19 K, Crystal	86.55
80.42 K, Glass	91.54
80.56 K, Crystal	86.3
81.22 K, Crystal	87.3
81.39 K, Glass	92.71
82.25 K, Crystal	88.55
82.32 K, Glass	93.45
83.28 K, Crystal	89.21
83.29 K, Glass	95.2
83.57 K, Crystal	89.05
84.28 K, Glass	95.95
85 K, Crystal	90.88
85.22 K, Glass	97.36
86.13 K, Glass	97.2
86.51 K, Crystal	92.54
87.04 K, Glass	98.86
87.51 K, Crystal	93.29
87.98 K, Glass	100.5
88.51 K, Crystal	93.95
88.93 K, Glass	101.4
89.5 K, Crystal	95.12
89.88 K, Glass	102.9
90 K, Crystal	95.78
90.5 K, Crystal	96.03
90.83 K, Glass	103.8
91.51 K, Crystal	97.11
91.79 K, Glass	104.5
92.51 K, Crystal	98.28
92.74 K, Glass	105.8
93.5 K, Crystal	99.11
93.68 K, Glass	107.3
94.49 K, Crystal	100.2
94.62 K, Glass	107.9
95 K, Crystal	100.6
95.48 K, Crystal	101.4
95.55 K, Glass	107.9
96.48 K, Crystal	102.4
96.51 K, Glass	109.8
97.47 K, Crystal	103.3
97.47 K, Glass	111.7
98.41 K, Glass	112.7
98.47 K, Crystal	104.1
99.31 K, Glass	114.5
99.46 K, Crystal	105
100 K, Crystal	105.4
100.2 K, Glass	113.8
100.45 K, Crystal	105.8
101.1 K, Glass	115.2
101.44 K, Crystal	106.9
101.97 K, Glass	117.3
102.44 K, Crystal	108.1
102.84 K, Glass	117.8
103.44 K, Crystal	108.7
103.72 K, Glass	119
104.44 K, Crystal	109.5
104.61 K, Glass	120.2
105.43 K, Crystal	110.5
105.51 K, Glass	121.5
106.41 K, Crystal	111.5
106.42 K, Glass	123.1
107.34 K, Glass	124.7
107.39 K, Crystal	112.7
108.29 K, Glass	126.4
108.37 K, Crystal	113.4
109.25 K, Glass	128.9
109.35 K, Crystal	114.2
110 K, Crystal	114.9
110.23 K, Glass	130
110.32 K, Crystal	115.2
111.21 K, Glass	134
111.31 K, Crystal	116
112.18 K, Glass	138.9
112.29 K, Crystal	117
113.14 K, Glass	146.1
113.28 K, Crystal	117.8
114.06 K, Glass	162.4
114.26 K, Crystal	118.6
114.91 K, Glass	193.9
115.24 K, Crystal	119.6
115.82 K, Liquid	198.1
116.22 K, Crystal	120.5
116.8 K, Liquid	199.6
117.2 K, Crystal	121.3
117.8 K, Liquid	200
118.17 K, Crystal	122.1
118.8 K, Liquid	200.4
119.15 K, Crystal	123.1
119.8 K, Liquid	200.7
120 K, Crystal	124
120.12 K, Crystal	124.2
120.79 K, Liquid	201
121.09 K, Crystal	124.8
121.77 K, Liquid	201.5
122.76 K, Liquid	202
123.02 K, Crystal	126.6
123.76 K, Liquid	202.1
123.99 K, Crystal	127.8
124.76 K, Liquid	202.3
124.96 K, Crystal	128.5
125.75 K, Liquid	202.9
125.92 K, Crystal	129.5
126.75 K, Liquid	202.9
126.91 K, Crystal	130.2
127.1 K, Crystal	130.5
127.74 K, Liquid	203.5
127.9 K, Crystal	130.9
128.73 K, Liquid	204.2
128.89 K, Crystal	131.3
129.13 K, Crystal	131.9
129.7 K, Liquid	204.7
130 K, Crystal	132.7
130.13 K, Crystal	132.5
130.64 K, Liquid	204.9
131.57 K, Liquid	205
132.12 K, Crystal	134.9
132.51 K, Liquid	205.5
133.1 K, Crystal	135.4
133.45 K, Liquid	205.9
134.08 K, Crystal	135.9
134.39 K, Liquid	206.2
135.33 K, Liquid	206.4
136.02 K, Crystal	137.6
136.26 K, Liquid	206.9
136.98 K, Crystal	138.6
137.2 K, Liquid	207.9
137.94 K, Crystal	138.9
138.89 K, Crystal	140
139.84 K, Crystal	140.1
140 K, Crystal	140.5
